From patent publication US20120115724A1, “METHOD OF CONTROLLING UNDESIRED VEGETATION” (SYNGENTA CROP PROTECTION LLC, priority 2009, published 2012)

Tests used:
[1] = tested on: Alopecurus myosuroides (ALOMY); assay: Pre-emergence biological efficacy (Example 13); format: in vivo; conditions: Alopecurus myosuroides, 312 h; pre-emergence, 1,000 g/ha, after 13 days; read-out: Percentage damage ALOMY
In short: (§1)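 Pots sown and sprayed one day later, pre-emergence, at 250 or 1000 g/ha in acetone/water with 0.5% Tween 20. Plants kept in glasshouse at 24/16 °C day/night, 14 h light, 65% humidity. Damage scored visually after 13 days on a 0–100 scale (100 = total damage).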

[2] = tested on: Amaranthus retroflexus (AMARE); assay: Pre-emergence biological efficacy (Example 13); format: in vivo; conditions: Amaranthus retroflexus, 312 h; pre-emergence, 1,000 g/ha, after 13 days; read-out: Percentage damage AMARE
In short: as §1

[3] = tested on: Echinochloa crus-galli (ECHCG); assay: Pre-emergence biological efficacy (Example 13); format: in vivo; conditions: Echinochloa crus-galli, 312 h; pre-emergence, 1,000 g/ha, after 13 days; read-out: Percentage damage ECHCG
In short: as §1

[4] = tested on: Ipomea hederaceae (IPOHE); assay: Pre-emergence biological efficacy (Example 13); format: in vivo; conditions: Ipomoea hederacea, 312 h; pre-emergence, 1,000 g/ha, after 13 days; read-out: Percentage damage IPOHE
In short: as §1

[5] = tested on: Setaria faberi (SETFA); assay: Pre-emergence biological efficacy (Example 13); format: in vivo; conditions: Setaria faberi, 312 h; pre-emergence, 1,000 g/ha, after 13 days; read-out: Percentage damage SETFA
In short: as §1

[6] = tested on: Solanum nigrum (SOLNI); assay: Pre-emergence biological efficacy (Example 13); format: in vivo; conditions: Solanum nigrum, 312 h; pre-emergence, 1,000 g/ha, after 13 days; read-out: Percentage damage SOLNI
In short: as §1

[7] = tested on: Alopecurus myosuroides (ALOMY); assay: Post-emergence biological efficacy (Example 14); format: in vivo; conditions: Alopecurus myosuroides, 312 h; post-emergence, 1,000 g/ha, after 13 days; read-out: Percentage damage ALOMY
In short: (§2)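 Pots were sprayed 8 days after sowing at 250 or 1000 g/ha, applied from acetone/water (50:50) with 0.5% Tween 20. Plants were grown in a glasshouse at 24/16° C. day/night, 14 h light and 65% humidity. Damage was scored 13 days later on a 0–100 scale, where 100 is total damage.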

[8] = tested on: Amaranthus retroflexus (AMARE); assay: Post-emergence biological efficacy (Example 14); format: in vivo; conditions: Amaranthus retroflexus, 312 h; post-emergence, 1,000 g/ha, after 13 days; read-out: Percentage damage AMARE
In short: as §2

[9] = tested on: Echinochloa crus-galli (ECHCG); assay: Post-emergence biological efficacy (Example 14); format: in vivo; conditions: Echinochloa crus-galli, 312 h; post-emergence, 1,000 g/ha, after 13 days; read-out: Percentage damage ECHCG
In short: as §2

[10] = tested on: Ipomea hederaceae (IPOHE); assay: Post-emergence biological efficacy (Example 14); format: in vivo; conditions: Ipomoea hederacea, 312 h; post-emergence, 1,000 g/ha, after 13 days; read-out: Percentage damage IPOHE
In short: as §2

[11] = tested on: Setaria faberi (SETFA); assay: Post-emergence biological efficacy (Example 14); format: in vivo; conditions: Setaria faberi, 312 h; post-emergence, 1,000 g/ha, after 13 days; read-out: Percentage damage SETFA
In short: as §2

[12] = tested on: Solanum nigrum (SOLNI); assay: Post-emergence biological efficacy (Example 14); format: in vivo; conditions: Solanum nigrum, 312 h; post-emergence, 1,000 g/ha, after 13 days; read-out: Percentage damage SOLNI
In short: as §2

[13] = tested on: ABUTH Abutilon theophrasti; assay: Post-emergence crop and weed test (Example 15); format: in vivo; conditions: 360 h, after 15 days, read-out: Percentage damage ABUTH
In short: (§3)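 Scoring: percent damage at 15 days after treatment, where 100 means total damage and 0 no damage. Treatment was a foliar spray of 14-day-old potted plants, using active ingredient diluted from a 5% acetone-based emulsifiable stock into water containing 0.2% X-77 adjuvant.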

[14] = tested on: AMARE Amaranthus retroflexus; assay: Post-emergence crop and weed test (Example 15); format: in vivo; conditions: 360 h, after 15 days, read-out: Percentage damage AMARE
In short: as §3

[15] = tested on: CHEAL Chenopodium album; assay: Post-emergence crop and weed test (Example 15); format: in vivo; conditions: 360 h, after 15 days, read-out: Percentage damage CHEAL
In short: as §3

[16] = tested on: EPHHL Euphorbia heterophylla; assay: Post-emergence crop and weed test (Example 15); format: in vivo; conditions: 360 h, after 15 days, read-out: Percentage damage EPHHL
In short: as §3

[17] = tested on: GALAP Galium aparine; assay: Post-emergence crop and weed test (Example 15); format: in vivo; conditions: 360 h, after 15 days, read-out: Percentage damage GALAP
In short: as §3

[18] = tested on: GLXMA Soybean; assay: Post-emergence crop and weed test (Example 15); format: in vivo; conditions: Glycine max, 360 h, after 15 days, read-out: Percentage damage GLXMA
In short: as §3

[19] = tested on: IPOHE Ipomoea hederacea; assay: Post-emergence crop and weed test (Example 15); format: in vivo; conditions: 360 h, after 15 days, read-out: Percentage damage IPOHE
In short: as §3

[20] = tested on: KCHSC Kochia scoparia; assay: Post-emergence crop and weed test (Example 15); format: in vivo; conditions: Bassia scoparia, 360 h, after 15 days, read-out: Percentage damage KCHSC
In short: as §3

[21] = tested on: POLCO Polygonum convolvulus; assay: Post-emergence crop and weed test (Example 15); format: in vivo; conditions: Fallopia convolvulus, 360 h, after 15 days, read-out: Percentage damage POLCO
In short: as §3

[22] = tested on: SIDSP Sida spinosa; assay: Post-emergence crop and weed test (Example 15); format: in vivo; conditions: 360 h, after 15 days, read-out: Percentage damage SIDSP
In short: as §3

[23] = tested on: SINAR Sinapis arvensis; assay: Post-emergence crop and weed test (Example 15); format: in vivo; conditions: Mutarda arvensis, 360 h, after 15 days, read-out: Percentage damage SINAR
In short: as §3

[24] = tested on: VERPE Veronica persica; assay: Post-emergence crop and weed test (Example 15); format: in vivo; conditions: 360 h, after 15 days, read-out: Percentage damage VERPE
In short: as §3

[25] = tested on: XANST Xanthium strumarium; assay: Post-emergence crop and weed test (Example 15); format: in vivo; conditions: 360 h, after 15 days, read-out: Percentage damage XANST
In short: as §3

C=Cc1c(NCc2ccco2)nc(-c2ccc(Cl)c(OC)c2F)nc1C(=O)OC [Compound 6, 2-(4-chloro-2-fluoro-3-methoxyphenyl)-5-ethenyl-4-(furan-2-ylmethylamino)-6-methoxycarbonylpyrimidine]
80%: pest or weed control at 1000 g/ha [3] | pest or weed control at 1000 g/ha [5] | pest or weed control at 1000 g/ha [7] | pest or weed control at 1000 g/ha [9] | pest or weed control at 1000 g/ha [10] | pest or weed control at 125 g/ha ([13]; 125 g/ha) | pest or weed control at 125 g/ha ([19]; 125 g/ha) | pest or weed control at 125 g/ha ([22]; 125 g/ha)
100%: pest or weed control at 1000 g/ha [2] | pest or weed control at 1000 g/ha [6] | pest or weed control at 1000 g/ha [8] | pest or weed control at 125 g/ha ([14]; 125 g/ha) | pest or weed control at 125 g/ha ([25]; 125 g/ha)
60%: pest or weed control at 125 g/ha ([20]; 125 g/ha) | pest or weed control at 125 g/ha ([23]; 125 g/ha)
70%: pest or weed control at 1000 g/ha [1] | pest or weed control at 125 g/ha ([17]; 125 g/ha) | pest or weed control at 125 g/ha ([21]; 125 g/ha) | pest or weed control at 125 g/ha ([24]; 125 g/ha)
10%: plant injury at 125 g/ha ([18]; 125 g/ha)
100 to 102 °C: melting point
90%: pest or weed control at 1000 g/ha [4] | pest or weed control at 1000 g/ha [11] | pest or weed control at 1000 g/ha [12] | pest or weed control at 125 g/ha ([15]; 125 g/ha) | pest or weed control at 125 g/ha ([16]; 125 g/ha)

C=Cc1c(N)nc(-c2ccc(Cl)c(N(C)C)c2F)nc1C(=O)OC [Compound 1]
20%: pest or weed control at 30 g/ha ([17]; 30 g/ha)
10%: pest or weed control at 30 g/ha ([23]; 30 g/ha)
90%: pest or weed control at 1000 g/ha [3] | pest or weed control at 1000 g/ha [5] | pest or weed control at 1000 g/ha [7] | pest or weed control at 1000 g/ha [10] | pest or weed control at 30 g/ha ([13]; 30 g/ha) | pest or weed control at 30 g/ha ([15]; 30 g/ha) | pest or weed control at 30 g/ha ([16]; 30 g/ha) | pest or weed control at 30 g/ha ([21]; 30 g/ha)
136 to 137 °C: melting point
80%: pest or weed control at 1000 g/ha [1] | pest or weed control at 30 g/ha ([20]; 30 g/ha) | pest or weed control at 30 g/ha ([24]; 30 g/ha)
60%: pest or weed control at 30 g/ha ([22]; 30 g/ha)
40%: pest or weed control at 30 g/ha ([19]; 30 g/ha)
0%: plant injury at 30 g/ha ([18]; 30 g/ha)
100%: pest or weed control at 1000 g/ha [2] | pest or weed control at 1000 g/ha [6] | pest or weed control at 1000 g/ha [8] | pest or weed control at 1000 g/ha [9] | pest or weed control at 1000 g/ha [11] | pest or weed control at 1000 g/ha [12] | pest or weed control at 30 g/ha ([14]; 30 g/ha) | pest or weed control at 30 g/ha ([25]; 30 g/ha)
